# Source: BindingDB's records for doi:10.1016/j.chembiol.2010.07.018 (University of Dundee, 2010)
# Starred links: 1 amine or outer side, 2 acyl side, 3 side chain; linkers in the order of their positions; H or OH if unused. Non-standard residues stand in square brackets, D forms with d. Residues, ends and D or L forms follow the SMILES beside them. Groups on a side chain read outwards from the residue. βAsp = O=C(O)[C@H](CC(=O)[*:2])N[*:1]; NMeF = CN[C@@H](Cc1ccccc1)C(=O)O; CO = O=C([*:1])[*:2]
# Biological target: T1, Endochitinase A1 (Aspergillus fumigatus, UniProt Q873Y0)
# T1 sequence (Q873Y0 whole entry): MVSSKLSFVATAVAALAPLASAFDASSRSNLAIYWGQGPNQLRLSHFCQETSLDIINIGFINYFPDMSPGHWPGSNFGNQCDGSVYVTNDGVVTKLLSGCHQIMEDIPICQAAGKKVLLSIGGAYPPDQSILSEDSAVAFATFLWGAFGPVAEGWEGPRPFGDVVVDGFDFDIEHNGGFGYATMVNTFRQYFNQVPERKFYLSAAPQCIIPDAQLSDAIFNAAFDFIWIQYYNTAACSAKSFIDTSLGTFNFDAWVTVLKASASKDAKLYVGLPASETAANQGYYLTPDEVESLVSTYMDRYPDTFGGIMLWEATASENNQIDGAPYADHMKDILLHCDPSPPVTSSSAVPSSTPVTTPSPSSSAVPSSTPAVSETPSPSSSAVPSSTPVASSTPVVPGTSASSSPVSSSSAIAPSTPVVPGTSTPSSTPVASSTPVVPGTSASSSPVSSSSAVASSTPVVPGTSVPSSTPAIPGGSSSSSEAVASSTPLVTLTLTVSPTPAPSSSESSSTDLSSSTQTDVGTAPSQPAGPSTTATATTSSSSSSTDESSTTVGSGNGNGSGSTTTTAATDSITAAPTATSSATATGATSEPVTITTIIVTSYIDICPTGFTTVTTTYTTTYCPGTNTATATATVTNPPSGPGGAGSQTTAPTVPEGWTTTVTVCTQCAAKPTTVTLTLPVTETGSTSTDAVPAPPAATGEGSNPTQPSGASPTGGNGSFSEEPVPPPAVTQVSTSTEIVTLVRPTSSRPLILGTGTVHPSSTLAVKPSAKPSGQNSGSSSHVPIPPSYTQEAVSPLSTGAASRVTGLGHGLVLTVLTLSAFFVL
# Experiment: Enzyme Inhibition Assay
# Settings: pH 5.5; 37 °C
row,SMILES,IC50 [µM]
1,"CNC(=O)NC(=N)NCCC[C@@H]1NC(=O)[C@@H](C)NC(=O)C[C@@H](C(=O)O)NC(=O)C[C@@H](C(=O)O)NC(=O)[C@H](Cc2ccccc2)N(C)C1=O [(2R,5S,8S,11S,15S)-8-benzyl-2,7-dimethyl-5-[3-({[(methylcarbamoyl)amino]methanimidoyl}amino)propyl]-3,6,9,13,17-pentaoxo-1,4,7,10,14-pentaazacycloheptadecane-11,15-dicarboxylic acid] (cyclo([NMeF][βAsp][βAsp][dA]R([CO-NHMe])))",> 3800
2,"[H]/N=C(\NC)NC(=O)NC [Argifin-Derived Fragments, 1]",79
3,"CCN=C(N)NC(=O)NC [Argifin-Derived Fragments, 2]",310
4,"CCCN=C(N)NC(=O)NC [Argifin-Derived Fragments, 3]",62
5,"CCCCNC(=N)NC(=O)NC [Argifin-Derived Fragments, 4]",38
6,"CNC(=O)NC(=N)NC1CCCCC1 [Argifin-Derived Fragments, 5]",42
7,"CNC(=O)NC(N)=Nc1ccccc1 [Argifin-Derived Fragments, 6]",112
8,"CNC(=O)NC(N)=NCc1ccccc1 [Argifin-Derived Fragments, 7]",299
